Experimental data as given in the supplement of paper PMC10307832.

Assays:
Experiment in all cases: relative viability (nuclei count vs DMSO), 5 days (fraction); higher = more cells survive
A-427 = tested on: A-427
Summary of the method: (§1)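 Medians of duplicate plates are given as relative viability. That measure is the nuclei count in treated wells divided by the count in vehicle wells. Counts were taken on 4× images of lung cancer cell lines in 1536-well plates, 5 days after pin-tool dosing the day after seeding with one drug alone or a fixed anchor-drug dose plus five library-drug doses (not always all listed) in √10 steps.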

CAL-12T = tested on: CAL-12T
Summary of the method: as §1

COR-L 105 = tested on: COR-L 105
Summary of the method: as §1

EMC-BAC-2 = tested on: EMC-BAC-2
Summary of the method: as §1

HARA = tested on: HARA
Summary of the method: as §1

HCC-366 = tested on: HCC-366
Summary of the method: as §1

HCC-827 = tested on: HCC-827
Summary of the method: as §1

HOP-62 = tested on: HOP-62
Summary of the method: as §1

LCLC-103H = tested on: LCLC-103H
Summary of the method: as §1

NCI-H1395 = tested on: NCI-H1395
Summary of the method: as §1

NCI-H1437 = tested on: NCI-H1437
Summary of the method: as §1

NCI-H1755 = tested on: NCI-H1755
Summary of the method: as §1

NCI-H1792 = tested on: NCI-H1792
Summary of the method: as §1

NCI-H1915 = tested on: NCI-H1915
Summary of the method: as §1

NCI-H2009 = tested on: NCI-H2009
Summary of the method: as §1

NCI-H2228 = tested on: NCI-H2228
Summary of the method: as §1

NCI-H23 = tested on: NCI-H23
Summary of the method: as §1

NCI-H460 = tested on: NCI-H460
Summary of the method: as §1

NCI-H522 = tested on: NCI-H522
Summary of the method: as §1

NCI-H727 = tested on: NCI-H727
Summary of the method: as §1

SK-LU-1 = tested on: SK-LU-1
Summary of the method: as §1

SW 1573 = tested on: SW 1573
Summary of the method: as §1

Cc1sc2c(c1C)C(c1ccc(Cl)cc1)=N[C@@H](CC(=O)OC(C)(C)C)c1nnc(C)n1-2 [JQ1] + CC(=O)c1c(C)c2cnc(Nc3ccc(N4CCNCC4)cn3)nc2n(C2CCCC2)c1=O [Palbociclib] (partner 0.5 µM)
relative viability (A-427; first compound 0.04 µM): 0.524 | relative viability (A-427; first compound 0.1265 µM): 0.493 | relative viability (A-427; first compound 0.4 µM): 0.457 | relative viability (A-427; first compound 1.265 µM): 0.445 | relative viability (A-427; first compound 4 µM): 0.375 | relative viability (CAL-12T; first compound 0.04 µM): 0.413 | relative viability (CAL-12T; first compound 0.1265 µM): 0.377 | relative viability (CAL-12T; first compound 0.4 µM): 0.226 | relative viability (CAL-12T; first compound 1.265 µM): 0.114 | relative viability (CAL-12T; first compound 4 µM): 0.233 | relative viability (COR-L 105; first compound 0.04 µM): 0.384 | relative viability (COR-L 105; first compound 0.1265 µM): 0.429 | relative viability (COR-L 105; first compound 0.4 µM): 0.358 | relative viability (COR-L 105; first compound 1.265 µM): 0.311 | relative viability (COR-L 105; first compound 4 µM): 0.34 | relative viability (EMC-BAC-2; first compound 0.04 µM): 0.496 | relative viability (EMC-BAC-2; first compound 0.1265 µM): 0.441 | relative viability (EMC-BAC-2; first compound 0.4 µM): 0.421 | relative viability (EMC-BAC-2; first compound 1.265 µM): 0.332 | relative viability (EMC-BAC-2; first compound 4 µM): 0.315 | relative viability (HARA; first compound 0.04 µM): 0.224 | relative viability (HARA; first compound 0.1265 µM): 0.193 | relative viability (HARA; first compound 0.4 µM): 0.228 | relative viability (HARA; first compound 1.265 µM): 0.229 | relative viability (HARA; first compound 4 µM): 0.189 | relative viability (HCC-366; first compound 0.04 µM): 0.415 | relative viability (HCC-366; first compound 0.4 µM): 0.202 | relative viability (HCC-366; first compound 1.265 µM): 0.137 | relative viability (HCC-366; first compound 4 µM): 0.0766 | relative viability (HCC-827; first compound 0.04 µM): 0.528 | relative viability (HCC-827; first compound 0.1265 µM): 0.388 | relative viability (HCC-827; first compound 1.265 µM): 0.279 | relative viability (HCC-827; first compound 4 µM): 0.252 | relative viability (HOP-62; first compound 0.04 µM): 0.424 | relative viability (HOP-62; first compound 0.1265 µM): 0.323 | relative viability (HOP-62; first compound 0.4 µM): 0.152 | relative viability (HOP-62; first compound 1.265 µM): 0.106 | relative viability (HOP-62; first compound 4 µM): 0.0968 | relative viability (LCLC-103H; first compound 0.04 µM): 0.46 | relative viability (LCLC-103H; first compound 0.1265 µM): 0.438 | relative viability (LCLC-103H; first compound 0.4 µM): 0.42 | relative viability (LCLC-103H; first compound 1.265 µM): 0.419 | relative viability (LCLC-103H; first compound 4 µM): 0.328 | relative viability (NCI-H1395; first compound 0.04 µM): 0.591 | relative viability (NCI-H1395; first compound 0.1265 µM): 0.556 | relative viability (NCI-H1395; first compound 0.4 µM): 0.602 | relative viability (NCI-H1395; first compound 1.265 µM): 0.443 | relative viability (NCI-H1395; first compound 4 µM): 0.395 | relative viability (NCI-H1437; first compound 0.04 µM): 0.266 | relative viability (NCI-H1437; first compound 0.1265 µM): 0.251 | relative viability (NCI-H1437; first compound 0.4 µM): 0.218 | relative viability (NCI-H1437; first compound 1.265 µM): 0.296 | relative viability (NCI-H1437; first compound 4 µM): 0.217 | relative viability (NCI-H1755; first compound 0.04 µM): 0.434 | relative viability (NCI-H1755; first compound 0.1265 µM): 0.426 | relative viability (NCI-H1755; first compound 0.4 µM): 0.416 | relative viability (NCI-H1755; first compound 1.265 µM): 0.388 | relative viability (NCI-H1755; first compound 4 µM): 0.353 | relative viability (NCI-H1792; first compound 0.04 µM): 0.6 | relative viability (NCI-H1792; first compound 0.4 µM): 0.538 | relative viability (NCI-H1792; first compound 1.265 µM): 0.446 | relative viability (NCI-H1792; first compound 4 µM): 0.385 | relative viability (NCI-H1915; first compound 0.04 µM): 0.542 | relative viability (NCI-H1915; first compound 0.4 µM): 0.37 | relative viability (NCI-H1915; first compound 1.265 µM): 0.295 | relative viability (NCI-H1915; first compound 4 µM): 0.179 | relative viability (NCI-H2009; first compound 0.04 µM): 0.181 | relative viability (NCI-H2009; first compound 0.1265 µM): 0.137 | relative viability (NCI-H2009; first compound 0.4 µM): 0.199 | relative viability (NCI-H2009; first compound 1.265 µM): 0.158 | relative viability (NCI-H2009; first compound 4 µM): 0.156 | relative viability (NCI-H2228; first compound 0.04 µM): 0.657 | relative viability (NCI-H2228; first compound 0.1265 µM): 0.704 | relative viability (NCI-H2228; first compound 0.4 µM): 0.641 | relative viability (NCI-H2228; first compound 1.265 µM): 0.293 | relative viability (NCI-H2228; first compound 4 µM): 0.379 | relative viability (NCI-H23; first compound 0.04 µM): 0.597 | relative viability (NCI-H23; first compound 0.1265 µM): 0.48 | relative viability (NCI-H23; first compound 0.4 µM): 0.275 | relative viability (NCI-H23; first compound 1.265 µM): 0.26 | relative viability (NCI-H23; first compound 4 µM): 0.215 | relative viability (NCI-H460; first compound 0.04 µM): 0.172 | relative viability (NCI-H460; first compound 0.1265 µM): 0.0585 | relative viability (NCI-H460; first compound 0.4 µM): 0.0456 | relative viability (NCI-H460; first compound 1.265 µM): 0.0198 | relative viability (NCI-H460; first compound 4 µM): 0.0263 | relative viability (NCI-H522; first compound 0.04 µM): 1.04 | relative viability (NCI-H522; first compound 0.1265 µM): 0.881 | relative viability (NCI-H522; first compound 0.4 µM): 0.697 | relative viability (NCI-H522; first compound 1.265 µM): 0.478 | relative viability (NCI-H522; first compound 4 µM): 0.39 | relative viability (NCI-H727; first compound 0.04 µM): 0.63 | relative viability (NCI-H727; first compound 0.1265 µM): 0.576 | relative viability (NCI-H727; first compound 0.4 µM): 0.61 | relative viability (NCI-H727; first compound 1.265 µM): 0.538 | relative viability (NCI-H727; first compound 4 µM): 0.581 | relative viability (SK-LU-1; first compound 0.04 µM): 0.405 | relative viability (SK-LU-1; first compound 0.1265 µM): 0.359 | relative viability (SK-LU-1; first compound 0.4 µM): 0.35 | relative viability (SK-LU-1; first compound 1.265 µM): 0.282 | relative viability (SK-LU-1; first compound 4 µM): 0.239 | relative viability (SW 1573; first compound 0.04 µM): 0.372 | relative viability (SW 1573; first compound 0.1265 µM): 0.274 | relative viability (SW 1573; first compound 0.4 µM): 0.202 | relative viability (SW 1573; first compound 1.265 µM): 0.129 | relative viability (SW 1573; first compound 4 µM): 0.118
